What was measured:
THP-1 cells = assay: Cell viability assay (CellTiter-Glo), THP-1; type: cell-based, human; details: THP-1, 72 h; cytotoxic
Protocol: Cells were maintained in a humidified incubator at 37 °C and 5% CO2. […] All cells were negatively tested for mycoplasma contamination either by the vendor or in house. […] If not stated otherwise, cells were harvested after incubation for 16 h and subjected to SDS-PAGE and western blotting. The RNA interference experiment was performed with CSN5 stealth siRNA (#HSS116986) and stealth negative control siRNA (#12935-400) (Invitrogen), which were transfected at 10 nM into HCT116 cells using […] (Qiagen) according to the manufacturer's protocols. Seventy-two hours after transfection, cells were harvested and subjected to SDS-PAGE and western blotting (see Supplementary Fig. 7 for all western blottings performed). A standardized CellTiter-Glo Assay (Promega #G7570) based on the quantification of ATP was applied according to the manufacturer's protocol to measure the amount of viable cells in culture. In brief, cells were seeded into 384-well plates at optimal density for each cell line. After 4 h, compounds were added at different concentrations in growth medium and incubated for another 72 h in a humidifying chamber at 37 °C and 5% CO2. Eventually, equal amounts of CellTiter-Glo reagent were added directly to the cells, incubated for 15 min and luminescence was recorded using PHERAstar plate reader (BMG LABTECH GmbH).

SU-DHL-1 cells = assay: Immunoblotting for PARP and caspase 3 in SU-DHL-1 cells; type: cell-based, human; details: SU-DHL-1, 1 μM, 24 h or 48 h
Protocol: Cells were maintained in a humidified incubator at 37 °C and 5% CO2. […] All cells were negatively tested for mycoplasma contamination either by the vendor or in house. […] If not stated otherwise, cells were harvested after incubation for 16 h and subjected to SDS-PAGE and western blotting. The RNA interference experiment was performed with CSN5 stealth siRNA (#HSS116986) and stealth negative control siRNA (#12935-400) (Invitrogen), which were transfected at 10 nM into HCT116 cells using […] (Qiagen) according to the manufacturer's protocols. Seventy-two hours after transfection, cells were harvested and subjected to SDS-PAGE and western blotting (see Supplementary Fig. 7 for all western blottings performed). […] Cells from longer compound incubations were also lysed in RIPA buffer, which allows the protein concentration to be determined by BCA Protein Assay Kit (Pierce). Proteins were separated by SDS-PAGE using 4-20% Tris-Glycine Gels (Invitrogen) and subsequently transferred to polyvinylidene difluoride membranes using a Trans-Blot Turbo System (BioRad). […] Horseradish peroxidase-conjugated secondary antibodies (1:3,000) were purchased from Promega AG and bound antibody was detected by enhanced chemiluminescence (Pierce). page 5: Supplementary Figure 5 a b 0 Cul1-Nedd8 Cul1-Nedd8 Cul1 -20 Cul1 Fbxo7 -40 Fbxo7 -60 Actin -80 Actin CDK6 -100 CDK6 […] […]

SU-DHL-1 xenografts = assay: SU-DHL-1 xenograft experiment in SCID-bg mice; type: in vivo; details: 14 days; for T/C value (tumour volume of treated versus control): last day of treatment
Protocol: For the in vivo study, subcutaneous SU-DHL-1 xenografts were grown in SCID-bg mice and CSN5i-3 was administered orally at doses of 50 mg kg^−1 BID and 100 mg kg^−1 QD over a period of 14 days. […] Tumours were excised at the end of the study and the effect of compound treatment assessed on the pharmacodynamics markers, neddylated Cul1 and Skp2. […] All animal experiments were approved by the Kantonales Veterinäramt Basel-Stadt and were conducted in accordance with the Eidgenössisches Tierschutzgesetz and the Eidgenössische Tierschutzverordnung. SU-DHL-1 cells (1 × 10^7; DSMZ) were implanted subcutaneously into SCID-bg female 7–9-week-old mice (Taconic) and developing tumours were propagated once before subcutaneous transplantation for efficacy studies. Treatment was initiated when tumours reached 150–200 mm^3 volume. […] Randomization was conducted by using an internal computer software (Indigo). CSN5i-3 was formulated in 100 mM citrate buffer pH 3, PEG300, Kolliphor HS15, 1 N HCl (56:30:10:4%w/w). Tumour response is reported as percentage change in tumour volume at the last day of treatment relative to start of treatment. […] At day 10 of treatment blood, samples were taken and concentrations of CSN5i-3 were determined at indicated time points post dose using ultra-high-pressure liquid chromatography/tandem MS. At the end of treatment, tumours were excised and snap frozen in liquid nitrogen. Frozen tumours were pulverized using CryoPrep (Covaris Inc.) and protein lysates were prepared from tumour powder for immunoblot analysis.

[1] = 50 mg kg^−1 BID and 100 mg kg^−1 QD oral

For `CC(C)n1nc(C(F)F)cc1C(=O)Nc1ccc([C@H]2[C@@H](O)CCCc3cncn32)c(-c2ccccc2)c1` [CSN5i-3, 3-(Difluoromethyl)-N-(6-((5S,6S)-6-hydroxy-6,7,8,9-tetrahydro-5H-imidazo[1,5-a]azepin-5-yl)-[1,1′-biphenyl]-3-yl)-1-isopropyl-1H-pyrazole-5-carboxamide], the AMAX (THP-1 cells) was at most −95%, the “apoptosis markers (cleaved PARP, cleaved caspase 3)” value (SU-DHL-1 cells) was “triggered the formation of cleaved PARP and cleaved caspase 3” and the “tolerability based on body weight” value (SU-DHL-1 xenografts; [1]) was “well tolerated”. The tumour growth outcome (SU-DHL-1 xenografts; [1]) was “Tumour stasis”, the “T/C value (tumour volume of treated versus control)” value (SU-DHL-1 xenografts; 50 mg kg^−1 BID oral) was 22% and the “T/C value (tumour volume of treated versus control)” value (SU-DHL-1 xenografts; 100 mg kg^−1 QD oral) was 25%.

Source: publication PMC5078989, “Targeted inhibition of the COP9 signalosome for treatment of cancer” (Nature Communications, 2016)
